Measurements as given in ChEMBL document CHEMBL1143950, “Antifungal and cytotoxic activities of some N-substituted aniline derivatives bearing a hetaryl fragment” (Bioorg Med Chem, 2008).
In brackets after ≈: the same amount, converted by molar mass.

Experiments:
Assay type in all cases: functional
Trichophyton rubrum = assay: Antifungal activity against Trichophyton rubrum C113 by microbroth dilution method
Aspergillus niger = assay: Antifungal activity against Aspergillus niger ATCC 9029 by micro-broth dilution method
Aspergillus fumigatus = assay: Antifungal activity against Aspergillus fumigatus ATCC 26934 by micro-broth dilution method
Saccharomyces cerevisiae = assay: Antifungal activity against Saccharomyces cerevisiae ATCC 9763 by microbroth dilution method
Aspergillus flavus = assay: Antifungal activity against Aspergillus flavus ATCC 9170 by micro-broth dilution method
Nannizzia gypsea = assay: Antifungal activity against Microsporum gypseum C115 by microbroth dilution method
Candida albicans = assay: Antifungal activity against Candida albicans ATCC 10231 by micro-broth dilution method
Candida tropicalis = assay: Antifungal activity against Candida tropicalis C131 by micro-broth dilution method
Cryptococcus neoformans = assay: Antifungal activity against Cryptococcus neoformans ATCC 32264 by microbroth dilution method
[1] = tested on: Trichophyton mentagrophytes; assay: Antifungal activity against Trichophyton mentagrophytes ATCC 9972 by micro-broth dilution method

Compound	MIC (Trichophyton rubrum) [µg/mL]	MIC (Aspergillus niger) [µg/mL]	MIC (Aspergillus fumigatus) [µg/mL]	MIC (Saccharomyces cerevisiae) [µg/mL]	MIC (Aspergillus flavus) [µg/mL]	MIC (Nannizzia gypsea) [µg/mL]	MIC (Candida albicans) [µg/mL]	MIC (Candida tropicalis) [µg/mL]	MIC (Cryptococcus neoformans) [µg/mL]	MIC [1] [µg/mL]
Brc1ccc(NCc2ccco2)cc1	3.12 (≈ 12.4 µM)	62.5 (≈ 248 µM)	50 (≈ 198 µM)	50 (≈ 198 µM)	50 (≈ 198 µM)	6.25 (≈ 24.8 µM)	62.5 (≈ 248 µM)	75 (≈ 297 µM)	50 (≈ 198 µM)	12.5 (≈ 49.6 µM)
c1ccc(NCc2ccncc2)cc1	125 (≈ 678 µM)	250 (≈ 1360 µM)	250 (≈ 1360 µM)	> 250	250 (≈ 1360 µM)	125 (≈ 678 µM)	> 250	250 (≈ 1360 µM)	> 250	125 (≈ 678 µM)
COc1ccc(NCc2ccco2)cc1	100 (≈ 492 µM)	250 (≈ 1230 µM)	250 (≈ 1230 µM)	> 250	250 (≈ 1230 µM)	100 (≈ 492 µM)	> 250	> 250	> 250	50 (≈ 246 µM)
C=CCC(Nc1ccccc1)c1cccs1 (stereo not given)	125 (≈ 545 µM)	> 250	> 250	> 250	> 250	125 (≈ 545 µM)	> 250	> 250	> 250	125 (≈ 545 µM)
CN(C)c1ccc(CNc2ccccc2)cc1	> 250	> 250	200 (≈ 884 µM)	> 250	> 250	> 250	> 250	> 250	> 250	> 250
Fc1ccc(NCc2ccco2)cc1	25 (≈ 131 µM)	250 (≈ 1310 µM)	100 (≈ 523 µM)	125 (≈ 654 µM)	> 250	100 (≈ 523 µM)	100 (≈ 523 µM)	125 (≈ 654 µM)	100 (≈ 523 µM)	62.5 (≈ 327 µM)
Cc1ccc(NCc2cccs2)cc1	25 (≈ 123 µM)	> 250	> 250	> 250	> 250	12.5 (≈ 61.5 µM)	> 250	> 250	> 250	50 (≈ 246 µM)
Oc1ccc(CNc2ccccc2)cc1	25 (≈ 125 µM)	> 250	> 250	250 (≈ 1250 µM)	> 250	50 (≈ 251 µM)	> 250	250 (≈ 1250 µM)	> 250	25 (≈ 125 µM)
N#CC(Nc1ccccc1)c1ccoc1 (stereo not given)	250 (≈ 1260 µM)	> 250	> 250	> 250	> 250	> 250	> 250	> 250	> 250	250 (≈ 1260 µM)
c1ccc(NCc2ccsc2)cc1	125 (≈ 660 µM)	250 (≈ 1320 µM)	250 (≈ 1320 µM)	250 (≈ 1320 µM)	250 (≈ 1320 µM)	250 (≈ 1320 µM)	250 (≈ 1320 µM)	250 (≈ 1320 µM)	250 (≈ 1320 µM)	125 (≈ 660 µM)
CC(=O)N1CCN(c2ccc(OC[C@H]3CO[C@](Cn4ccnc4)(c4ccc(Cl)cc4Cl)O3)cc2)CC1 [KETOCONAZOLE]	0.025 (≈ 0.047 µM)	0.25 (≈ 0.47 µM)	0.125 (≈ 0.235 µM)	0.5 (≈ 0.941 µM)	0.5 (≈ 0.941 µM)	0.05 (≈ 0.0941 µM)	0.5 (≈ 0.941 µM)	0.125 (≈ 0.235 µM)	0.25 (≈ 0.47 µM)	0.025 (≈ 0.047 µM)
c1ccc(NCc2cccs2)cc1	12.5 (≈ 66 µM)	> 250	> 250	> 250	> 250	25 (≈ 132 µM)	> 250	> 250	> 250	25 (≈ 132 µM)
C=CCC(Nc1ccccc1)c1ccncc1 (stereo not given)	250 (≈ 1110 µM)	250 (≈ 1110 µM)	250 (≈ 1110 µM)	125 (≈ 557 µM)	250 (≈ 1110 µM)	125 (≈ 557 µM)	250 (≈ 1110 µM)	250 (≈ 1110 µM)	250 (≈ 1110 µM)	62.5 (≈ 279 µM)
Cc1ccc(NCc2ccccn2)cc1	50 (≈ 252 µM)	> 250	> 250	> 250	> 250	50 (≈ 252 µM)	> 250	> 250	> 250	50 (≈ 252 µM)
Cn1cccc1C(C#N)Nc1ccccc1 (stereo not given)	250 (≈ 1180 µM)	> 250	> 250	> 250	> 250	250 (≈ 1180 µM)	> 250	> 250	> 250	250 (≈ 1180 µM)
C[C@@H]1[C@H](O)[C@@H](C)/C=C/C=C/C=C/C=C/C=C/C=C/C=C/[C@H](O[C@@H]2O[C@H](C)[C@@H](O)[C@H](N)[C@@H]2O)C[C@@H]2O[C@](O)(C[C@@H](O)C[C@@H](O)[C@H](O)CC[C@@H](O)C[C@@H](O)CC(=O)O[C@H]1C)C[C@H](O)[C@H]2C(=O)O [AMPHOTERICIN B]	–	0.5 (≈ 0.541 µM)	0.5 (≈ 0.541 µM)	0.5 (≈ 0.541 µM)	0.5 (≈ 0.541 µM)	–	1 (≈ 1.08 µM)	0.5 (≈ 0.541 µM)	0.25 (≈ 0.271 µM)	–

Continued, values first:

MIC (Trichophyton rubrum) [µg/mL]	MIC (Aspergillus niger) [µg/mL]	MIC (Aspergillus fumigatus) [µg/mL]	MIC (Saccharomyces cerevisiae) [µg/mL]	MIC (Aspergillus flavus) [µg/mL]	MIC (Nannizzia gypsea) [µg/mL]	MIC (Candida albicans) [µg/mL]	MIC (Candida tropicalis) [µg/mL]	MIC (Cryptococcus neoformans) [µg/mL]	MIC [1] [µg/mL]	Compound
100 (≈ 577 µM)	100 (≈ 577 µM)	62.5 (≈ 361 µM)	> 250	100 (≈ 577 µM)	100 (≈ 577 µM)	250 (≈ 1440 µM)	250 (≈ 1440 µM)	250 (≈ 1440 µM)	100 (≈ 577 µM)	c1ccc(NCc2ccco2)cc1
25 (≈ 117 µM)	> 250	> 250	> 250	> 250	25 (≈ 117 µM)	> 250	> 250	> 250	25 (≈ 117 µM)	COc1ccc(CNc2ccccc2)cc1
62.5 (≈ 279 µM)	250 (≈ 1120 µM)	125 (≈ 559 µM)	250 (≈ 1120 µM)	250 (≈ 1120 µM)	62.5 (≈ 279 µM)	62.5 (≈ 279 µM)	62.5 (≈ 279 µM)	62.5 (≈ 279 µM)	62.5 (≈ 279 µM)	Clc1ccc(NCc2cccs2)cc1
250 (≈ 959 µM)	> 250	> 250	> 250	> 250	> 250	> 250	> 250	> 250	250 (≈ 959 µM)	C=CCC(Nc1ccc(Cl)cc1)c1cccn1C (stereo not given)
> 250	> 250	> 250	> 250	> 250	> 250	> 250	> 250	> 250	> 250	COc1ccc(CNc2cccc([N+](=O)[O-])c2)cc1
62.5 (≈ 252 µM)	> 250	> 250	> 250	> 250	62.5 (≈ 252 µM)	> 250	> 250	125 (≈ 505 µM)	62.5 (≈ 252 µM)	C=CCC(Nc1ccc(Cl)cc1)c1ccoc1 (stereo not given)
62.5 (≈ 293 µM)	> 250	> 250	> 250	> 250	125 (≈ 586 µM)	> 250	> 250	250 (≈ 1170 µM)	62.5 (≈ 293 µM)	C=CCC(Nc1ccccc1)c1ccoc1 (stereo not given)
62.5 (≈ 286 µM)	125 (≈ 572 µM)	125 (≈ 572 µM)	62.5 (≈ 286 µM)	125 (≈ 572 µM)	62.5 (≈ 286 µM)	31.2 (≈ 143 µM)	31.2 (≈ 143 µM)	62.5 (≈ 286 µM)	62.5 (≈ 286 µM)	Clc1ccc(NCc2ccncc2)cc1
125 (≈ 615 µM)	250 (≈ 1230 µM)	250 (≈ 1230 µM)	> 250	250 (≈ 1230 µM)	250 (≈ 1230 µM)	> 250	> 250	250 (≈ 1230 µM)	125 (≈ 615 µM)	Cc1ccc(NCc2ccsc2)cc1
250 (≈ 1260 µM)	> 250	> 250	> 250	> 250	> 250	> 250	> 250	> 250	250 (≈ 1260 µM)	N#CC(Nc1ccccc1)c1ccco1 (stereo not given)
50 (≈ 236 µM)	100 (≈ 471 µM)	100 (≈ 471 µM)	> 250	100 (≈ 471 µM)	50 (≈ 236 µM)	> 250	200 (≈ 942 µM)	50 (≈ 236 µM)	50 (≈ 236 µM)	Cc1cc(C)cc(NCc2ccccn2)c1
62.5 (≈ 301 µM)	62.5 (≈ 301 µM)	62.5 (≈ 301 µM)	125 (≈ 602 µM)	62.5 (≈ 301 µM)	125 (≈ 602 µM)	125 (≈ 602 µM)	125 (≈ 602 µM)	62.5 (≈ 301 µM)	62.5 (≈ 301 µM)	Clc1ccc(NCc2ccoc2)cc1
> 250	> 250	> 250	> 250	> 250	> 250	> 250	> 250	> 250	> 250	Cc1ccc(NCc2cccn2C)cc1
25 (≈ 80.6 µM)	100 (≈ 322 µM)	200 (≈ 645 µM)	200 (≈ 645 µM)	100 (≈ 322 µM)	25 (≈ 80.6 µM)	> 250	> 250	100 (≈ 322 µM)	25 (≈ 80.6 µM)	Ic1ccc(NCc2ccccn2)cc1
250 (≈ 1340 µM)	250 (≈ 1340 µM)	250 (≈ 1340 µM)	250 (≈ 1340 µM)	250 (≈ 1340 µM)	125 (≈ 668 µM)	250 (≈ 1340 µM)	250 (≈ 1340 µM)	125 (≈ 668 µM)	250 (≈ 1340 µM)	Cc1ccc(NCc2ccoc2)cc1
25 (≈ 80.6 µM)	100 (≈ 322 µM)	50 (≈ 161 µM)	200 (≈ 645 µM)	50 (≈ 161 µM)	50 (≈ 161 µM)	> 250	200 (≈ 645 µM)	50 (≈ 161 µM)	25 (≈ 80.6 µM)	Ic1ccc(NCc2cccnc2)cc1
250 (≈ 1340 µM)	> 250	> 250	> 250	> 250	> 250	> 250	> 250	> 250	250 (≈ 1340 µM)	Cn1cccc1CNc1ccccc1
0.01 (≈ 0.0343 µM)	–	–	–	–	0.04 (≈ 0.137 µM)	–	–	–	0.04 (≈ 0.137 µM)	CN(C/C=C/C#CC(C)(C)C)Cc1cccc2ccccc12 [TERBINAFINE]
